Reference: patent publication US9629942B2, “Limus-coated medical devices” (Innora GmbH, priority 2010, dated 2017)

Experiments:
[1] = Stability of sirolimus on a balloon catheter; assay type: physicochemical; settings: at the dose level applied
Method: Balloons for percutaneous transluminal coronary angioplasty (Cordis Fire Star catheters, Cordis Corp., USA) were coated either with sirolimus alone or combined with different amounts of BHT. Coated balloons were tested in respect of sirolimus loss during the passage through a hemostatic valve, Medtronic Launcher JL 3.5 6F guiding catheter, and one minute in stirred blood (37° C.).

neointimal proliferation = assay: Inhibition of neointimal proliferation; assay type: in vivo; settings: BHT without sirolimus, at the dose level applied

**Q.** What does the source list for Cc1cc(C(C)(C)C)c(O)c(C(C)(C)C)c1 [BHT, butylated hydroxytoluene]?
**A.** Effect of BHT on stability of sirolimus on a balloon catheter [1]: does not significantly increase the stability of sirolimus; Inhibition of neointimal proliferation (neointimal proliferation): does not inhibit neointimal proliferation
